{"source": "paper PMC11648822", "about": "“Lactam Truncation Yields a Dihydroquinazolinone Scaffold with Potent Antimalarial Activity that Targets PfATP4” (Chemmedchem, 2024)", "system": "P. berghei ANKA", "experiment": "P. berghei 4-day mouse model", "format": "in vivo", "settings": "20 mg/kg p.o. q.d. at 2, 24, 48, 72 h", "method": "In this model, mice are infected with P. berghei ANKA asexual blood stage parasites. Compounds are then administered by oral gavage at 20 mg/kg 2, 24, 48, and 72 hours after the parasite infection.\nEach day, a fresh aliquot of the compound stock was diluted 1/10 in water for administration to mice. 8 week old female mice (Ozgene) on day 0 were infected with 2×10^7 P. berghei ANKA‐infected erythrocytes. […] 2 mice were also dosed with artesunate using the same regime at 30 mg/kg. The parasitemia of mice was assessed by visualizing Giemsa‐stained thin blood smears by microscopy and a minimum of 1000 RBCs were counted. To calculate the percent antimalarial activity the following formula was used: 100 ‐ (mean parasitemia treated day 4 post‐infection/mean parasitemia vehicle control day 4 post‐infection)×100. Mice were culled the day following the last oral gavage.\nBriefly, ‘donor’ female Swiss mice were infected intraperitoneally (IP) with blood stage P. berghei parasites constitutively expressing GFP (P. berghei ANKA GFPcon 259cl2).[36] Three days later, groups of 3 ‘acceptor’ Swiss mice were infected intravenously with 1 x 10^7 parasitised red blood cells from the ‘donor mice’. […] Control mice were left untreated. Peripheral blood samples were taken 24 h after administration of the last dose, and parasitemia was measured by flow cytometry (proportion of GFP‐positive cells in 100,000 recorded events using Attune Nxt, ThermoFisher) and microscopic analysis of Giemsa‐stained blood smears. Parasitemia values were averages of 3 mice per group.", "note": "Where “and” joins values, the source holds several entries; their conditions need not be identical. Identical values can stand only once."}
{"smiles": "CN1C(=O)c2ccc(-n3cccn3)cc2NC1(C)C(=O)Nc1cncc(Cl)c1", "note": "(centres unmarked) [Compound 33, N‐(5‐Chloropyridin‐3‐yl)‐2,3‐dimethyl‐4‐oxo‐7‐(1H‐pyrazol‐1‐yl)‐1,2,3,4‐tetrahydroquinazoline‐2‐carboxamide]", "values": [{"measurement": "% parasitemia", "setting": "day 4", "result": 12.8, "unit": "%"}, {"measurement": "% reduction in parasitemia", "setting": "day 4, versus control", "result": "46% and 46.7%"}]}
